Results on two compounds are retold here after patent publication US20230190779A1, “Agent for Improving Symptoms of Menopause” (Kao Corporation, priority 2020, published 2023).

The experiment has as its target T1, human TRPV4 (Homo sapiens, UniProt Q9HBA0).
T1 construct: expressed in transfected cells; host or cells: HeLa cells (human cervical cancer-derived, ATCC), transient transfection
Kind of experiment: Suppression of TRPV4 activity: intracellular calcium ion influx in human TRPV4 expression HeLa cells stimulated with GSK1016790a. Format: cell-based. The following applies: GSK + solvent = 100%, n = 3, Mean ± SE. How it is done: Using a primer set consisting of oligonucleotides represented by the base sequences described below which was synthesized with reference to the published human TRPV4 gene sequence using cDNA obtained by reverse transcribing the total RNA extracted from human duodenum-derived cells (Hutu-80 cells, purchased from American Type Culture Collection) as a template, the polymerase chain reaction (PCR) was carried out under the following conditions.
The obtained PCR product was purified using a High Pure PCR Product Purification Kit (manufactured by Roche). Using the purified PCR product and pcDNA3.1 Directional TOPO Expression Kit (manufactured by Invitrogen), a human TRPV4 gene expression vector was produced.
A human cervical cancer-derived cell line (HeLa cells, purchased from American Type Culture Collection) was cultured using a DMEM/F12 medium containing 10% fetal bovine serum (manufactured by Invitrogen). HeLa cells were seeded in a 10 cm cell culture dish at 2×10^5 cells/dish. After culturing for 2 days, the cells were transfected with the human TRPV4 gene expression vector (7.7 lag) produced in the above (1) using TransIT-HeLaMONSTER Transfection Kit (manufactured by Mirus) and cultured for 1 day.
The cells were detached using Detachin (manufactured. by Genlantis Inc.), seeded in a DMEM/F12 medium containing 10% fetal bovine serum on a 96 well Optical bottom plate (manufactured by Nunc A/S) at a cell density of 2.0×10^4 cells/90 μL/well, and further cultured for 1 day.
Measurement of the intracellular calcium ion influx activity was carried out using Calcium Kit II-fluo 4 (trade name, DOJTNDO). 90 μL/well of a loading buffer containing Fluo4-AM was added to the human TRPV4 expression cells produced in the above (2), and incubated at 37° C. for 1 hour. Thereafter, the fluorescence intensity (excitation wavelength: 488 nm, fluorescence wavelength: 524 nm) was measured at 37° C. every two seconds using a fluorescence plate reader (FDSS/μCFLL Functional Drug Screening System C13299, manufactured by Hamamatsu Photonics K. K.). After 30 seconds from the start of the measurement, each of GSK1016790a (manufactured by Sigma) which is the TRPV4 agonist, and the cassis extract, or D3R, C3R, D3G, or C3G prepared in the above Production Example as the sample was diluted with a dilution buffer of the measurement kit, 20 μL/well of a mixed solution thereof (mixed immediately before addition) was added, and the change of fluorescence intensity was measured every two seconds until 300 seconds. […]
The TRPV4 activity of the sample was calculated by the following equation assuming that the calcium ion influx rate by the treatment of GSK1016790a which is the TRPV4 agonist was 100%. […]

Each structure is given as a SMILES string.

T1 sequence (Q9HBA0 whole entry): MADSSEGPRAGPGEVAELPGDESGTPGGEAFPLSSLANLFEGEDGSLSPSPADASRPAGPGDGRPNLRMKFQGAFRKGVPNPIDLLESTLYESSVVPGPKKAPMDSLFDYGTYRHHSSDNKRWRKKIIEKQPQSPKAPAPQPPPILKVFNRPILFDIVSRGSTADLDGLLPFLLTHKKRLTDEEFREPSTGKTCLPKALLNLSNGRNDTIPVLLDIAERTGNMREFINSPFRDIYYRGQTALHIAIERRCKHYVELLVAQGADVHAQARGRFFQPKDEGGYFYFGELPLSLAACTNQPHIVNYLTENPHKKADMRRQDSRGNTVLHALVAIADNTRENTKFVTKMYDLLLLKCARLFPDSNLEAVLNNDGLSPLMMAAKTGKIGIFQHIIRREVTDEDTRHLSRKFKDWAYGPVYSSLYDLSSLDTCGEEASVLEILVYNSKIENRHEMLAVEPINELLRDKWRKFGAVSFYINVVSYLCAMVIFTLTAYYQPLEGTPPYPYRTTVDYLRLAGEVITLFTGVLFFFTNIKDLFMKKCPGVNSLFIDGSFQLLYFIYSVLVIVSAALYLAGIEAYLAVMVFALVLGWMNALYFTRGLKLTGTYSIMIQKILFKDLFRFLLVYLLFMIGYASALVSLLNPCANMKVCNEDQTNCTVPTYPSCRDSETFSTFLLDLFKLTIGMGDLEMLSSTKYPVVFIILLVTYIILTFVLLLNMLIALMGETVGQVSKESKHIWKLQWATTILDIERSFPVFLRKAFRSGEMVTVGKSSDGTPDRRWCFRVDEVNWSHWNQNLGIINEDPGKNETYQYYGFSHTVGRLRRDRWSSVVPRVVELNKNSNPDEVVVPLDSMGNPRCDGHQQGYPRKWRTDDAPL

Take `OC[C@H]1O[C@@H](Oc2cc3c(O)cc(O)cc3[o+]c2-c2cc(O)c(O)c(O)c2)[C@H](O)[C@@H](O)[C@@H]1O` [D3G, delphinidin-3-glucoside, reference compound]: the “Intracellular Ca^2+ increase rate (%)” value reads like this: (sample 0.14 μg/mL + GSK 10 nM) 101.4 ± 2.7%; (sample 1.4 μg/mL + GSK 10 nM) 100.4 ± 3.2%.
Consider `OC[C@H]1O[C@@H](Oc2cc3c(O)cc(O)cc3[o+]c2-c2ccc(O)c(O)c2)[C@H](O)[C@@H](O)[C@@H]1O` [C3G, cyanidin-3-glucoside, reference compound], for which the “Intracellular Ca^2+ increase rate (%)” value is, setting by setting: (sample 0.05 μg/mL + GSK 10 nM) 94.4 ± 3.1%; (sample 0.5 μg/mL + GSK 10 nM) 101.5 ± 4.1%.
